The experiment relates to CD2F1 mice, L1210 leukemia ip, survival T/C. Kind of experiment: NCI In Vivo Anticancer Drug Screen. Data for tumor model L1210 Leukemia (intraperitoneal) in CD2F1 (CDF1) mice. The conditions noted are these: higher = longer survival. In a few lines:
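In this screen, transplantable tumors were grown in mice given either the compound or its vehicle. Results were expressed as the treated measurement relative to the control measurement.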

Setting [1] is: endpoint: mean survival time, dose: 100.0 mg/kg/injection, schedule: Q04DX003 (ip), vehicle: saline with Tween-80.
Setting [2] is: endpoint: mean survival time, dose: 200.0 mg/kg/injection, schedule: Q04DX003 (ip), vehicle: saline with Tween-80.
The mark [3] stands for this setting: endpoint: mean survival time, dose: 400.0 mg/kg/injection, schedule: Q04DX003 (ip), vehicle: saline with Tween-80.
Where [4] appears, read: endpoint: mean survival time, dose: 100.0 mg/kg/injection, schedule: Q01DX009 (ip), vehicle: Klucel (hydroxypropylcellulose) (HPC).
Where [5] appears, read: endpoint: mean survival time, dose: 100.0 mg/kg/injection, schedule: Q01DX001 (ip), vehicle: saline with Tween-80.
[6] abbreviates: endpoint: mean survival time, dose: 200.0 mg/kg/injection, schedule: Q01DX001 (ip), vehicle: saline with Tween-80.
The mark [7] stands for this setting: endpoint: mean survival time, dose: 400.0 mg/kg/injection, schedule: Q01DX001 (ip), vehicle: saline with Tween-80.
Setting [8] is: endpoint: mean survival time, dose: 100.0 mg/kg/injection, schedule: Q01DX009 (ip), vehicle: saline with Tween-80.
Where [9] appears, read: endpoint: mean survival time, dose: 200.0 mg/kg/injection, schedule: Q01DX009 (ip), vehicle: saline with Tween-80.
Setting [10] is: endpoint: mean survival time, dose: 400.0 mg/kg/injection, schedule: Q01DX009 (ip), vehicle: saline with Tween-80.

Several values for one entry are separate records, joined by “and”; a condition that tells them apart may be missing. Equal entries are not always repeated. Inconclusive results and toxic doses are left out.

Consider `C=CC1CCCCC1C=C` (stereo not given), for which the T/C under setting [1] is 110 % of control, the T/C under setting [2] was 102 % of control and the T/C under setting [3] was 100 % of control.

`CCOC(=S)SSC(=S)OCC`: the T/C (endpoint: mean survival time, dose: 100.0 mg/kg/injection, schedule: Q01DX001 (ip), vehicle: Klucel (hydroxypropylcellulose) (HPC)) is 92 % of control and the T/C (endpoint: mean survival time, dose: 200.0 mg/kg/injection, schedule: Q01DX001 (ip), vehicle: Klucel (hydroxypropylcellulose) (HPC)) was 114 % of control.

Take `O=C(O)C(O)CO.O=C(O)C(O)CO.[NH-]C1CCCCC1[NH-].[Pt+2]` (stereo not given): the T/C (endpoint: mean survival time, dose: 2.5 mg/kg/injection, schedule: Q04DX003 (ip), vehicle: other) was 124 % of control.

`CCOC(=O)/C=C(\C)Nc1cccc(NC(C)=O)c1`: the T/C (endpoint: mean survival time, dose: 12.5 mg/kg/injection, schedule: Q01DX009 (ip), vehicle: other) was 97 % of control; the T/C (endpoint: mean survival time, dose: 25.0 mg/kg/injection, schedule: Q01DX009 (ip), vehicle: other) was 91 % of control; the T/C (endpoint: mean survival time, dose: 50.0 mg/kg/injection, schedule: Q01DX009 (ip), vehicle: other) is 91 % of control; the T/C (endpoint: mean survival time, dose: 100.0 mg/kg/injection, schedule: Q01DX009 (ip), vehicle: other) was 100 % of control; the T/C (endpoint: mean survival time, dose: 200.0 mg/kg/injection, schedule: Q01DX009 (ip), vehicle: other) is 91 % of control.

As for `COC(=O)CC(CC(=O)OC)N1CCCC1`, the T/C is 102 % of control (endpoint: mean survival time, dose: 100.0 mg/kg/injection, schedule: Q01DX001 (ip), vehicle: saline); 102 % of control (endpoint: mean survival time, dose: 200.0 mg/kg/injection, schedule: Q01DX001 (ip), vehicle: saline); 102 % of control (endpoint: mean survival time, dose: 400.0 mg/kg/injection, schedule: Q01DX001 (ip), vehicle: saline).

Turning to `CC(/C=N/O)=N\O.CC(/C=N/O)=N\O.[Pd]`, the T/C is 98 % of control (endpoint: mean survival time, dose: 1.56 mg/kg/injection, schedule: Q01DX009 (ip), vehicle: saline with Tween-80); 100 % of control (endpoint: mean survival time, dose: 1.56 mg/kg/injection, schedule: Q04DX002 (ip), vehicle: saline with Tween-80); 95 % of control (endpoint: mean survival time, dose: 3.13 mg/kg/injection, schedule: Q01DX009 (ip), vehicle: saline with Tween-80); 95 % of control (endpoint: mean survival time, dose: 3.13 mg/kg/injection, schedule: Q04DX002 (ip), vehicle: saline with Tween-80); 88 % of control (endpoint: mean survival time, dose: 6.25 mg/kg/injection, schedule: Q04DX002 (ip), vehicle: saline with Tween-80); 102 % of control (endpoint: mean survival time, dose: 25.0 mg/kg/injection, schedule: Q04DX002 (ip), vehicle: saline with Tween-80).

With `O=S(=O)(Cc1ccc(Cl)cc1Cl)Cc1ccc(Cl)cc1Cl`, the T/C under setting [4] was 98 % of control; the T/C (endpoint: mean survival time, dose: 200.0 mg/kg/injection, schedule: Q01DX009 (ip), vehicle: Klucel (hydroxypropylcellulose) (HPC)) is 91 % of control; the T/C (endpoint: mean survival time, dose: 400.0 mg/kg/injection, schedule: Q01DX009 (ip), vehicle: Klucel (hydroxypropylcellulose) (HPC)) was 92 % of control.

`C=CCN(C(C)=O)c1nnc(N(CC=C)C(C)=O)s1`: the T/C was 100 % of control under setting [5], 100 % of control under setting [6] and 100 % of control under setting [7].

As for `CCCCS(=O)C(Cl)(CCC)C(C)(C)O` (stereo not given), the T/C is 97 % of control under setting [1], 93 % of control under setting [2] and 97 % of control under setting [3].

`Cc1ccccc1[As](c1ccccc1C)c1ccccc1C`: the T/C was 86 % of control (endpoint: mean survival time, dose: 25.0 mg/kg/injection, schedule: Q01DX009 (ip), vehicle: saline) and 86 % of control (endpoint: mean survival time, dose: 100.0 mg/kg/injection, schedule: Q01DX009 (ip), vehicle: saline).

Turning to `CCCCCC1C(O)C(=O)OC1(C(F)(F)F)C(F)(F)F` (stereo not given), the T/C by setting is: (endpoint: mean survival time, dose: 100.0 mg/kg/injection, schedule: Q04DX003 (ip), vehicle: Klucel (hydroxypropylcellulose) (HPC)) 91 % of control; (endpoint: mean survival time, dose: 200.0 mg/kg/injection, schedule: Q04DX003 (ip), vehicle: Klucel (hydroxypropylcellulose) (HPC)) 94 % of control; (endpoint: mean survival time, dose: 400.0 mg/kg/injection, schedule: Q04DX003 (ip), vehicle: Klucel (hydroxypropylcellulose) (HPC)) 96 % of control.

In the case of `CN(C1=CC(=O)C(=O)c2ccccc21)c1ccccc1`, the T/C (endpoint: mean survival time, dose: 75.0 mg/kg/injection, schedule: Q01DX001 (ip), vehicle: saline) was 97 % of control; the T/C (endpoint: mean survival time, dose: 150.0 mg/kg/injection, schedule: Q01DX001 (ip), vehicle: saline) was 95 % of control; the T/C (endpoint: mean survival time, dose: 300.0 mg/kg/injection, schedule: Q01DX001 (ip), vehicle: saline) was 100 % of control.

As to `C1=CSC(=C2SC=CS2)S1`, the T/C is 95 % of control under setting [1] and 102 % of control under setting [2].

In the case of `CCC1(C)CCC2(C)C(CCC3C(C)(CO)CCCC32O)C1` (stereo not given), the T/C under setting [5] was 98 % of control, the T/C under setting [6] is 94 % of control and the T/C under setting [7] was 98 % of control.

For the compound `O=c1c2[nH]cnc2ncn1C1CCCC1`, the T/C was 100 % of control (endpoint: mean survival time, dose: 100.0 mg/kg/injection, schedule: Q01DX001 (ip), vehicle: other); 100 % of control (endpoint: mean survival time, dose: 200.0 mg/kg/injection, schedule: Q01DX001 (ip), vehicle: other); 101 % of control (endpoint: mean survival time, dose: 400.0 mg/kg/injection, schedule: Q01DX001 (ip), vehicle: other).

`CCCCCCOc1ccc(C=Nc2ccc(CC)cc2)cc1`: the T/C under setting [1] was 88 % of control, the T/C under setting [2] was 91 % of control and the T/C under setting [3] is 88 % of control.

As to `FC(F)Cc1ccccc1`, the T/C is, setting by setting: under setting [5], 100 % of control; under setting [6], 94 % of control; under setting [7], 100 % of control.

For `O=C(C1=C/C(=C\c2ccccc2)CCC1)c1ccccc1`, the T/C runs as follows: under setting [8], 98 % of control; under setting [1], 104 % of control; under setting [9], 94 % of control; under setting [2], 100 % of control; under setting [10], 88 % of control; under setting [3], 102 % of control.

Turning to `COc1ccc(NC(=O)CCl)cc1`, the T/C runs as follows: (endpoint: mean survival time, dose: 25.0 mg/kg/injection, schedule: Q01DX009 (ip), vehicle: Klucel (hydroxypropylcellulose) (HPC)) 96 % of control and 98 % of control; (endpoint: mean survival time, dose: 50.0 mg/kg/injection, schedule: Q01DX009 (ip), vehicle: Klucel (hydroxypropylcellulose) (HPC)) 96 % of control and 98 % of control; under setting [4], 96 % of control and 104 % of control.

`CS(=O)(=O)OCCBr`: the T/C (endpoint: mean survival time, dose: 50.0 mg/kg/injection, schedule: Q04DX003 (ip), vehicle: saline) is 102 % of control.

`O=CC1C2C=CCC12` (stereo not given): the T/C was 102 % of control (endpoint: mean survival time, dose: 100.0 mg/kg/injection, schedule: Q01DX009 (ip), vehicle: saline sonified); 95 % of control under setting [1]; 102 % of control (endpoint: mean survival time, dose: 200.0 mg/kg/injection, schedule: Q01DX009 (ip), vehicle: saline sonified); 95 % of control under setting [2]; 91 % of control (endpoint: mean survival time, dose: 400.0 mg/kg/injection, schedule: Q01DX009 (ip), vehicle: saline sonified); 95 % of control under setting [3].

Turning to `O=C1c2ccccc2C(=O)c2c(NCCNCCO)ccc(O)c21`, the T/C is, setting by setting: (endpoint: mean survival time, dose: 1.25 mg/kg/injection, schedule: Q01DX009 (ip), vehicle: suspension in saline) 100 % of control; (endpoint: mean survival time, dose: 2.5 mg/kg/injection, schedule: Q01DX009 (ip), vehicle: suspension in saline) 101 % of control and 112 % of control; (endpoint: mean survival time, dose: 5.0 mg/kg/injection, schedule: Q01DX009 (ip), vehicle: suspension in saline) 113 % of control and 103 % of control; (endpoint: mean survival time, dose: 7.5 mg/kg/injection, schedule: Q01DX009 (ip), vehicle: saline) 193 % of control; (endpoint: mean survival time, dose: 10.0 mg/kg/injection, schedule: Q01DX009 (ip), vehicle: suspension in saline) 118 % of control and 101 % of control; (endpoint: mean survival time, dose: 15.0 mg/kg/injection, schedule: Q01DX009 (ip), vehicle: saline) 151 % of control. In addition, the T/C was 112 % of control (endpoint: mean survival time, dose: 20.0 mg/kg/injection, schedule: Q01DX009 (ip), vehicle: suspension in saline); 156 % of control (endpoint: mean survival time, dose: 40.0 mg/kg/injection, schedule: Q01DX009 (ip), vehicle: suspension in saline); 123 % of control and 110 % of control (endpoint: median survival time, dose: 5.0 mg/kg/injection, schedule: Q01DX009 (ip), vehicle: suspension in saline); 115 % of control (endpoint: median survival time, dose: 10.0 mg/kg/injection, schedule: Q01DX009 (ip), vehicle: suspension in saline); 150 % of control (endpoint: median survival time, dose: 20.0 mg/kg/injection, schedule: Q01DX009 (ip), vehicle: suspension in saline); 153 % of control and 155 % of control (endpoint: median survival time, dose: 40.0 mg/kg/injection, schedule: Q01DX009 (ip), vehicle: suspension in saline). Further, the T/C (endpoint: median survival time, dose: 80.0 mg/kg/injection, schedule: Q01DX009 (ip), vehicle: suspension in saline) was 158 % of control and 183 % of control.

On to `c1cc2nc(c1)CSCCCCCCSC2`, for which the T/C was 91 % of control under setting [8], 90 % of control under setting [9] and 91 % of control under setting [10].

Turning to `CC(NC(=O)C(C)(Br)C1CCCCC1)c1ccccc1` (stereo not given), the T/C reads like this: under setting [5], 87 % of control; under setting [6], 91 % of control.

Source of the values: PubChem BioAssay AID256 (DTP/NCI, 2004).
